Source: patent US20100267784A1, “NOVEL 4,5-DIHYDROISOXAZOLES WITH ESTROGENIC ACTIVITY” (priority 2007, published 2010)

Key:
[1] = target: ERβ (Homo sapiens, UniProt Q92731); assay: ERβ reporter (luciferase) transactivation assay in transfected HEK293 cells; type: cell-based; design: expressed in transfected cells; host or cells: HEK293; details: for ERβ receptor activation relative to 10 nM E2 corresponding 100: sample concentration 10 μM, 24 hours, mean of at least three independent transfections; for activation at 10 µM: HEK293, 24 h, read-out: ERβ receptor activation relative to 10 nM E2 corresponding 100, sample concentration 10 μM, mean of at least three independent transfections
Chain of ERβ (Q92731 whole entry): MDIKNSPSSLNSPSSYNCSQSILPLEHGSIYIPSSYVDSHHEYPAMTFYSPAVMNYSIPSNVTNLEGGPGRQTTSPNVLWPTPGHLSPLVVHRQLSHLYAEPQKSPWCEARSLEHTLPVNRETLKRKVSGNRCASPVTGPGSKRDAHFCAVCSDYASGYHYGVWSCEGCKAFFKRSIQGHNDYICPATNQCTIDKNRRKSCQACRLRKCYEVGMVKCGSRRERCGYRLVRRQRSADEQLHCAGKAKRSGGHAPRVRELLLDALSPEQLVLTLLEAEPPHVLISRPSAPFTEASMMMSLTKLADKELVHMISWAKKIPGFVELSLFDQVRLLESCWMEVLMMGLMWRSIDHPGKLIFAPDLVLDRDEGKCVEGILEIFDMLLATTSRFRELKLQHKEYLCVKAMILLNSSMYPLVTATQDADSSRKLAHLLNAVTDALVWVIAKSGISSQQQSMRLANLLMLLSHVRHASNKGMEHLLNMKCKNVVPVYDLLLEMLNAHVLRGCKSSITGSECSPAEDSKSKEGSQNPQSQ
Method: (§1) Determination of the Estrogen Activity of the Compounds: Cell Culture, Transfection and Reporter Assays
(§2) All other reagents were of reagent grade from Sigma or Fluka. One day before transfection, HEK293 cells were seeded in 48-well plates (70×10^3 cells per well) in phenol-free Dulbecco's modified Eagle medium supplemented with 5% delipidated fetal bovine serum (Sigma) and antibiotics. After a medium change, the cells were transfected for 4 hours with 5 ng ERα or ERβ expression vector, 75 ng reporter plasmid pERE2TATA-LUC and 20 ng control plasmid pCMVβ by the calcium phosphate method. After transfection, the cells received fresh medium containing either vehicle (0.1% v/v) or test compound (10 μM). After 24 hours, the cells were washed, lysed and luciferase and β-galactosidase activities were determined from 20 μl of lysates with the Victor^2TM reader (PerkinElmer Wallac, Turku, Finland). […] The data are means ±SEM of at least three independent transfections.

[2] = target: T1, ERα (Homo sapiens, UniProt P03372); assay: ERα reporter (luciferase) transactivation assay in transfected HEK293 cells; type: cell-based; design: expressed in transfected cells; host or cells: HEK293; details: sample concentration 10 μM, 24 hours, mean of at least three independent transfections
T1 sequence (P03372 1-595): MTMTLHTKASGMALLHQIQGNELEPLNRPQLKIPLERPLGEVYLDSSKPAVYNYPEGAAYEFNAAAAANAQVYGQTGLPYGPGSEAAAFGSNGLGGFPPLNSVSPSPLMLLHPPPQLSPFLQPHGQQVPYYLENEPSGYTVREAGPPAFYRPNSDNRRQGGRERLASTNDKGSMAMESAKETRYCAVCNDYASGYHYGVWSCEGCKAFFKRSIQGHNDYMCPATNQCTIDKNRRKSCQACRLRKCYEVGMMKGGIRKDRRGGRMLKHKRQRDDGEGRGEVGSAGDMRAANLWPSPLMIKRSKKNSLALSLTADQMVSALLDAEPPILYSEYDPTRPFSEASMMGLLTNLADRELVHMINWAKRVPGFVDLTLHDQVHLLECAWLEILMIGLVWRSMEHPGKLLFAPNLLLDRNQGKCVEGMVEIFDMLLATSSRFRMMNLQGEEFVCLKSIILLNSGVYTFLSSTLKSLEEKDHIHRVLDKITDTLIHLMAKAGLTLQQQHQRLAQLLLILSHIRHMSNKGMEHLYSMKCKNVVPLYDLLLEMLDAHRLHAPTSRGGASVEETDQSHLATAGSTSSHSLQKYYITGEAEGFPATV
Method: as §1, §2

ERβ receptor activation relative to 10 nM E2 corresponding 100 [1]	ERα receptor activation relative to 10 nM E2 corresponding 100 [2]	activation at 10 µM [1]	SMILES
8.1%	11.2%		c1ccc(CCC2=NOC(c3ccccc3)C2)cc1 (single isomer, unassigned) [110b, 3-Phenethyl-5-phenyl-4,5-dihydroisoxazole]
7.4%	28.9%		Fc1ccc(CC2CC(CCc3ccccc3)=NO2)cc1 (single isomer, unassigned) [66b, 5-(4-fluorobenzyl)-3-phenethyl-4,5-dihydroisoxazole]
	34.1%	10.5%	c1ccc(CCC2=NOC(Cc3cccc4ccccc34)C2)cc1 (single isomer, unassigned) [67a, 5-naphthalen-1-yl-methyl-3-phenethyl-4,5-dihydroisoxazole]
−20.0%	8.1%		CC1(c2ccccc2)CC(CCc2ccccc2)=NO1 (single isomer, unassigned) [71a, 5-Methyl-3-phenethyl-5-phenyl-4,5-dihydroisoxazole]
−1.1%	1.7%		Oc1ccc(CC2CC(CCCc3ccc(O)c(O)c3)=NO2)cc1 (single isomer, unassigned) [103a, 3-[3-(3,4-Dihydroxy-phenyl)-propyl]-5-(4-hydroxy-benzyl)-4,5-dihydro-isoxazole]
	37.0%	1.2%	c1ccc(CCC2CC(Cc3ccccc3)=NO2)cc1 (stereo not shown) [108ab, 3-Benzyl-5-phenethyl-4,5-dihydroisoxazole]
42.4%	105.2%		Oc1ccc(CC2CC(CCc3ccccc3)=NO2)cc1 (single isomer, unassigned) [94b, 5-(4-Hydroxy-benzyl)-3-phenethyl-4,5-dihydro-isoxazole]
−0.7%	1.4%		Oc1ccc(CC2CC(CCCc3ccc(O)c(O)c3)=NO2)cc1 (single isomer, unassigned) [103b, 3-[3-(3,4-Dihydroxy-phenyl)-propyl]-5-(4-hydroxy-benzyl)-4,5-dihydro-isoxazole]
6.4%	0.4%		COc1ccccc1CC1CC(CCc2ccccc2)=NO1 (single isomer, unassigned) [64b, 5-(2-Methoxybenzyl)-3-phenethyl-4,5-dihydroisoxazole]
0.8%	15.8%		Oc1ccc(CCC2=NOC(CCc3ccccc3)C2)cc1 (single isomer, unassigned) [106b, 3-[2-(4-Hydroxy-phenyl)-ethyl]-5-phenethyl-4,5-dihydro-isoxazole]
−0.9%	14.4%		Oc1ccc(CCCC2=NOC(Cc3ccc(O)cc3)C2)cc1 (single isomer, unassigned) [101a, 5-(4-Hydroxy-benzyl)-3-[3-(4-hydroxy-phenyl)-propyl]-4,5-dihydro-isoxazole]
0.6%	6.2%		Oc1ccc(CC2CC(CCc3ccccc3O)=NO2)cc1 (single isomer, unassigned) [95b, 5-(4-Hydroxy-benzyl)-3-[2-(2-hydroxy-phenyl)-ethyl]-4,5-dihydro-isoxazole]
1.3%	38.2%		c1ccc(CCC2=NOC(Cc3ccccc3)C2)cc1 (single isomer, unassigned) [109b, 5-Benzyl-3-phenethyl-4,5-dihydroisoxazole]
19.8%	75.1%		Oc1ccc(CCCC2=NOC(Cc3ccccc3)C2)cc1 (single isomer, unassigned) [99b, 5-Benzyl-3-[3-(4-hydroxy-phenyl)-propyl]-4,5-dihydro-isoxazole]
−6.0%	1.1%		c1ccc(CCC2CC(c3ccccc3)=NO2)cc1 (single isomer, unassigned) [111b, 5-Phenethyl-3-phenyl-4,5-dihydroisoxazole]
7.9%	9.7%		COc1ccc(C2=NOC(Cc3ccccc3)C2)cc1 (single isomer, unassigned) [12b, 5-Benzyl-3-(4-methoxyphenyl)-4,5-dihydroisoxazole]
7.2%	27.6%		Oc1ccc(CCCC2=NOC(c3cccc(O)c3)C2)cc1 (single isomer, unassigned) [89b, 3-[3-(4-Hydroxy-phenyl)-propyl]-5-(3-hydroxy-phenyl)-4,5-dihydro-isoxazole]
3.6%	3.0%		Oc1cccc(CCC2=NOC(CCc3ccccc3)C2)c1 (single isomer, unassigned) [105b, 3-[2-(3-Hydroxy-phenyl)-ethyl]-5-phenethyl-4,5-dihydro-isoxazole]
	19.6%	34.4%	c1ccc(CC2=NOC(c3ccccc3)C2)cc1 (stereo not shown) [112ab, 3-Benzyl-5-phenyl-4,5-dihydroisoxazole]
5.1%	28.1%		c1ccc(CCCC2=NOC(Cc3ccccc3)C2)cc1 (single isomer, unassigned) [114b, 5-Benzyl-3-(3-phenyl-propyl)-4,5-dihydro-isoxazole]
	16.4%	9.8%	c1ccc(CCC2=NOC(c3ccccc3)C2)cc1 (single isomer, unassigned) [110a, 3-Phenethyl-5-phenyl-4,5-dihydroisoxazole]
28.4%	77.8%		Oc1ccc(CCC2=NOC(Cc3ccc(F)cc3)C2)cc1 (single isomer, unassigned) [98a, 5-(4-Fluoro-benzyl)-3-[2-(4-hydroxy-phenyl)-ethyl]-4,5-dihydro-isoxazole]
−9.0%	1.2%		COc1ccc(CCCC2=NOC(c3ccccc3)C2)cc1 (single isomer, unassigned) [72b, 3-[3-(4-Methoxy-phenyl)-propyl]-5-phenyl-4,5-dihydroisoxazole]
17.0%	97.2%		Oc1ccc(CC2CC(CCCc3ccccc3)=NO2)cc1 (single isomer, unassigned) [100b, 5-(4-Hydroxy-benzyl)-3-(3-phenyl-propyl)-4,5-dihydro-isoxazole]
	104.8%	19.2%	Oc1ccccc1CCC1=NOC(Cc2ccccc2)C1 (single isomer, unassigned) [91a, 5-Benzyl-3-[2-(2-hydroxy-phenyl)-ethyl]-4,5-dihydro-isoxazole]
−2.5%	15.7%		Oc1cccc(CCC2=NOC(Cc3ccccc3)C2)c1 (single isomer, unassigned) [92b, 5-Benzyl-3-[2-(3-hydroxy-phenyl)-ethyl]-4,5-dihydro-isoxazole]
	4.5%	4.2%	Oc1ccccc1CCC1=NOC(CCc2ccccc2)C1 (single isomer, unassigned) [104a, 3[2-(2-Hydroxy-phenyl)-ethyl]-5-phenethyl-4,5-dihydro-isoxazole]
	18.9%	9.5%	COc1ccccc1CC1CC(CCc2ccccc2)=NO1 (single isomer, unassigned) [64a, 5-(2-Methoxybenzyl)-3-phenethyl-4,5-dihydroisoxazole]
10.6%	0.8%		COc1ccc(CC2CC(CCc3ccccc3)=NO2)cc1 (single isomer, unassigned) [65a, 5-(4-Methoxybenzyl)-3-phenethyl-4,5-dihydroisoxazole]
